The values that follow come from US8178118B2, “Magnesium compositions and uses thereof for cognitive function” (Magceutics, Inc., priority 2007, dated 2012).

Series [1] is described as follows: magnesium absorption rate in rats (intake versus fecal excretion, ICP-AES). To be noted: FIG. 4, Example 5, Mg gluconate in skim milk or water with 5 weight percent lactose, MgCl2 in water. Here is the method: Fifty 3-month old, male Sprague Dawley (SD) rats were divided into five groups of ten rats. Rats of this age and older are considered adult. Each of the rats was placed in a separate metabolic cage equipped with urine- and feces-collecting wells. All of the rats were maintained in a temperature-controlled room (22° C. to 25° C.) with a dark period from 08:00 pm to 08:00 am daily. From day 1 through day 3, each rat was fed daily 15 g of magnesium-free food and de-ionized water. […] The medium was skim milk for Composition 1 and Group 1, milk prepared from powdered milk, by diluting the powdered milk with water to obtain a composition like that of skim milk, for Composition 2 and Group 2, 1% milk cream in water for Composition 3 and Group 3, water comprising 5 weight percent lactose for Composition 4 and Group 4, and water for the Control Composition and Control Group. […]
From day 4 through day 10, urine from each rat was collected daily. The collected urine from each rat was then pooled together and the total volume of the pooled urine from each rat was recorded. The pooled urine from each rat, in an amount of […], was analyzed for magnesium content using an inductively coupled plasma-atomic emission spectrometer (ICP-AES). […] The pooled feces from each rat, in an amount of 0.5 g, were analyzed for magnesium content using an ICP-AES. […]

For series [2], the system named is mice genetically altered to present symptoms of Alzheimer's disease (AD). The series is described as follows: modified Morris water maze test in AD mice. Particulars: AD mice aged 13 months, FIG. 16. It counts as in vivo, mouse. Here is the method: Another group, the control group, of 10 mice that were genetically altered to present symptoms of AD were fed a Control Diet, a diet of normal solid food and water, for 30 days.
The pool used was a pool of water in a circular metal tank (150 cm in diameter and 50 cm in depth) having a water height of 30 cm and a water temperature that was maintained at ˜22° C. The pool was placed in a moderately lit area and surrounded by a black curtain. An acrylic platform (15 cm in diameter) was placed 2 cm below the surface of the water in the middle of one quadrant of the pool, equidistant from the center and the edge of the pool. Outside the pool, a cue was placed so as to be visible to a mouse in the maze, allowing a mouse to use it as a landmark for spatial orientation. The cue remained unchanged throughout the test period.
On the first day of the training and testing period, the water in the pool was transparent, such that the platform was visible. Each mouse was trained to swim towards the platform and to stand on the platform so as not to be submerged in the pool. […] The amount of time the mouse took to find the platform, referred to as “escape latency,” was recorded for each trial.
On the second day of the training and testing period, a small quantity of milk was added to the water in the pool, such that the pool was opaque and the platform was no longer visible. […]

The test system of series [3] is diabetic patients. Particulars: nearly 1 g of magnesium daily for 1 month; cited from earlier work.
Series [4] relates to rats. The series is described as follows: novel object recognition test in rats. It counts as in vivo, rat. Here is the method: In this example, the effect of magnesium supplementation on recognition memory was tested. Three groups of rats were used in these experiments: 1) young rats (three months old); aging rats (12-14 months old), and; 3) magnesium-treated aging rats (12-14 months old, diet supplemented with 6 mg/kg MgCl2 from 8 months of age). We used experimentally naive, female, Sprague-Dawley young […], aging (12-14 month old) and […] rats (Charles River) at the beginning of the behavior experiments. They were housed two per cage with continuous access to food and water under a 12:12 light-dark cycle, with light onset at 8:00 a.m. […] All experiments involving animals were approved by the Massachusetts Institute of Technology's and Tsinghua University Committees on Animal Care.
The three groups of rats were tested for recognition memory using an object recognition test with a single exposure to the object during training. The task is based on the natural tendency of rodents to explore new objects and tests the animals' memory capacity for distinguishing novel versus familiar objects.
Briefly, the rats were first individually habituated to the personnel and then to open-field arena during 2 weeks. […] The retention intervals were 10 min and 24 hours. Objects were cleaned thoroughly between trials with 20% ethanol solution to ensure the absence of olfactory cues. The particular objects for a given trial were randomly determined, but each object was used for only one trial per rat. Memory of the familiar object is associated with increased exploration of the new object and an exploration index (% correct) is calculated as new object inspection time/30.
In this example, the effect of magnesium supplementation on memory consolidation was studied. […]
Briefly, the rats were first individually habituated to the personnel and then to open-field arena during 2 weeks. […] The particular objects for a given trial were randomly determined, but each object was used for only one trial per rat. […]

Series [5] has as its system young, aging and aged rats. Here is the method: Twenty 2-month old, male Sprague Dawley (SD) rats were housed in a temperature-controlled room (22° C. to 25° C.) with a dark period from 08:00 pm to 08:00 am daily. […] Over 7 days before the training and trial period began, each rat was handled and habituated to the maze and to Kellogg's Froot Loop cereal.
Each rat underwent a test of one trial, followed by an interval of 10-minutes, followed by another trial, and so on, for a total of 6 trials in one day. In each trial, each rat went through a sample run in the maze, followed by an interval of 15 seconds, followed by a choice run in the maze. In the sample run, the subject rat was forced to go to the left or to the right by the presence of a block, according to a pseudorandom sequence (with an equal number of left turns and right turns, and no more than two consecutive turns in the same direction). As a reward, Froot Loop cereal was available in the food well at the end of the run, regardless of the direction that was taken by virtue of the block. In the choice run, the block that had been present in the preceding sample run was removed, and the rat was allowed to choose to go to the left or to the right. As a reward, Froot Loop cereal was available in the food well at the end of the run, only when the rat had made a “correct choice” by choosing the direction opposite that taken in the preceding sample run. […]
On the first day (designated day 0) of the feeding of the two groups, as just described, each rat underwent a preliminary test of one trial, followed by an interval of 10 minutes, followed by another trial, and so on, for a total of 4 trials in one day. […] In this preliminary test, the choice accuracy level, or ratio of correct choices made, co, to the number of number of trials in the test, no, was determined for each rat. […]
Three groups of animals (young, aging, and magnesium-treated aging rats) were used. […] Spatial working memory was assessed using a T-maze non-matching-to-place task. […] Spatial working memory was first assessed on an elevated T-maze. […]

Series [6] in a line: brain (brainstem) magnesium concentration in AD mice, ICP-OES. It counts as in vivo, mouse. Particulars: AD mice on magnesium diet from 5 month to 21 month of age, FIG. 26A.
The subject of series [7] is AD mice. The series is described as follows: physical motility (swimming speed) during water maze test. To be noted: 7 months and 15 months of treatment, FIG. 21. In kind it is in vivo, mouse.
Procedure: The swimming speed of each mice is calculated from off-analysis.

As to magnesium gluconate, the “magnesium absorption rate of the higher dosage compositions (magnesium loading capacity)” value in series [1] is “suitably close to those associated with the lower dosage compositions”.

Take `CC12CC3CC(C)(C1)CC(N)(C3)C2` [memantine]: in series [2], the “reduction of the effects of AD on learning capacity” value is reported as “better at reducing the effects of AD on learning capacity than aricept”.

Regarding `[O]=[Mg]` [magnesium oxide], in series [3], the “increase of serum magnesium level” value was “about 10%” and the metabolic control result was “only minor improvement in metabolic control”.

In the case of `[Cl-].[Cl-].[Mg+2]` [MgCl2, magnesium chloride], the “novel object exploration preference, 10 minute retention interval” value in series [4] (aging rats (12-14 months old), 6 mg/kg MgCl2 from 8 months of age, single exposure training, P<0.0001) is recorded as “preferentially explored the novel object to the same extent as young rats”. In series [4] (aging rats, single exposure training, all groups), the “ability to distinguish novel versus familiar objects after 24 hours” value is “lose there ability to distinguish novel versus familiar objects”. In addition, the “preference for the novel object, 24-hour retention interval after spaced training” value in series [4] (two training sessions separated by 10 minutes, magnesium-treated aging rats) is on record as “retained a high level of preference”. Further, the “magnesium absorption rate of the higher dosage compositions (magnesium loading capacity)” value in series [1] is “less desirable”. Also, the “asymptotic choice accuracy level after 8 days of training” value in series [5] (all three groups (young, aging, magnesium-treated aging rats)) was ~94%. The “learning in non-matching-to-place task, 15 sec delay” value in series [5] (magnesium-treated aging rats versus aging rats, p<0.05) is recorded as “performed significantly better from their first trials”. Moreover, the “spatial working memory with increased delay between sample and choice trials” value in series [5] (magnesium-treated aging rats, p<0.05) was “significantly enhanced the performance of the aging rats at 2 and 5 min delays”.

For magnesium, in series [6], the “relation of magnesium intake to brain magnesium” value is given as “linearly correlated to the amount of brain magnesium”. In series [7], the “mobility during the water maze test” value is “greatly increased mobility”.
